Experimental data published in paper PMC7932537, “Quantitative profiling of protease specificity” (PLoS Computational Biology, 2021).

Columns and labels:
MMP-2 [1] = test: Substrate phage display with NGS: relative probability (RP) of P3-P1' tetramer clusters; format: biochemical, human; details: MMP2;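 note: ratio of tetramer probability after protease selection to that in naive phage library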
MMP-2 [2] = target: T1, MMP-2 (Homo sapiens, UniProt P08253); test: K(obs) of individual phage substrates (set of 1369); format: biochemical; details: MMP2
T1 sequence (P08253 110-660): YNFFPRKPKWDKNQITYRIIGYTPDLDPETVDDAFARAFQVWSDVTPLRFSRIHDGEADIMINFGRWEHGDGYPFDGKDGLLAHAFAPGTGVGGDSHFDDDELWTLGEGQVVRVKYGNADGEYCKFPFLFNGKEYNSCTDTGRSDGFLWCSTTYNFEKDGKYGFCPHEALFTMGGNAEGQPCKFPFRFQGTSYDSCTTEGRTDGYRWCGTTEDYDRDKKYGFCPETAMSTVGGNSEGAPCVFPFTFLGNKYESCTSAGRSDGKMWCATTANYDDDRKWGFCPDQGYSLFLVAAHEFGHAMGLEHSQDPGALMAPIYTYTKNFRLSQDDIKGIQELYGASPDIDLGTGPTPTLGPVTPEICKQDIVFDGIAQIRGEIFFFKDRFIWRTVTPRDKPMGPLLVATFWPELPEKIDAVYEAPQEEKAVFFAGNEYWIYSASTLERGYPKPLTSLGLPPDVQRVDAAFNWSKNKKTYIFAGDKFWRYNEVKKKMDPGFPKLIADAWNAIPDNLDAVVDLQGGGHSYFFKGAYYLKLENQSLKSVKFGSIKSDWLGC

MMP-9 = MMP-9 (Homo sapiens, UniProt P14780); test: as above; format: biochemical; details: MMP9
[3] = RP of the P3-P1' tetramer contained in the substrate (substrate phage display with NGS)
[4] = individual phage substrates, set of 1369 peptides, cleavage position marked by hyphen in sequence
[5] = individual phage substrates, set of 1369 peptides, hyphen in sequence marks cleavage position
[6] = RP of the P3-P1' tetramer contained in the substrate
[7] = individual phage substrate of the set of 1369 peptides, cleavage position marked by '-'
[8] = individual phage substrate of the set of 1369 peptides, dash in the sequence marks the cleavage position

Sequence of MMP-9 (P14780 94-707): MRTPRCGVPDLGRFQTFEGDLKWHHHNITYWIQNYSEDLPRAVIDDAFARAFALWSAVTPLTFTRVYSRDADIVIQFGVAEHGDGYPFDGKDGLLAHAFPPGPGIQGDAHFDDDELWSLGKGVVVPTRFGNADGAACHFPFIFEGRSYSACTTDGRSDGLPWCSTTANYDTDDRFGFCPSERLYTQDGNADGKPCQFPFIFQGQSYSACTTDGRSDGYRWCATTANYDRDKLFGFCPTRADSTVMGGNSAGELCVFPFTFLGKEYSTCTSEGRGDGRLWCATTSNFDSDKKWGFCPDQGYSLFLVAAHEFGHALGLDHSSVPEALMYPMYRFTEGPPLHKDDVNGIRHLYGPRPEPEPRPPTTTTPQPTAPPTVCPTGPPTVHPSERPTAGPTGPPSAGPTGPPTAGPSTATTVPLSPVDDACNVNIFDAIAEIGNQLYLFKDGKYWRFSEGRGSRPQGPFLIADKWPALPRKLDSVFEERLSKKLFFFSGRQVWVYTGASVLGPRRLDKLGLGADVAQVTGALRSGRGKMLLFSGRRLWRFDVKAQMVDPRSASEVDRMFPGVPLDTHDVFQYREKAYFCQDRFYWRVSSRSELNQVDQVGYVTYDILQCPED

Substance | relative probability (RP) (MMP-2 [1]; [3]) | Kobs (MMP-2 [2]; [4]) [M⁻¹ s⁻¹] | Kobs (MMP-9; [5]) [M⁻¹ s⁻¹] | relative probability (RP) (MMP-2 [1]; [6]) | Kobs (MMP-2 [2]; [7]) [M⁻¹ s⁻¹] | Kobs (MMP-9; [8]) [M⁻¹ s⁻¹]
KMPSF-LTASG | 29.537 | 8321.48 | 8941.32 | – | – | –
GYPLH-LQTAS | 34.1843 | 9740.44 | 8941.32 | – | – | –
SGARQ-LVLTA | 3.214 | 0 | 0 | – | – | –
NRLSH-WTASG | 23.1226 | 12792.1 | 912.511 | – | – | –
GSLAH-LTASG | – | – | – | 32.813 | 12792.1 | 0
QRMAS-LTASG | 31.6834 | 10866.7 | 551.253 | – | – | –
SGYAN-MRRTA | 22.6837 | 2097.28 | 762.325 | – | – | –
SGPVA-LYKTA | 34.2983 | 12792.1 | 12792.1 | – | – | –
GGYAG-LRTAS | – | – | – | 20.9112 | 4082.43 | 0
PKWHG-LTASG | – | – | – | 0.5588 | 355.093 | 619.843
EVARA-WTASG | 17.4628 | 7386.83 | 1513.13 | – | – | –
GRVAY-LSTAS | – | – | – | 26.5348 | 8941.32 | 56.119
GTALP-LRTAS | – | – | – | 22.1772 | 6396.07 | 3253.29
HNANY-LTASG | 3.901 | 1610.61 | 0 | – | – | –
SLPTS-LTASG | 28.926 | 8321.48 | 2097.28 | – | – | –
RLANA-LTASG | – | – | – | 20.3526 | 3741.87 | 619.843
SGGSG-LRIGL | – | – | – | 1.9698 | 12792.1 | 201.585
FVVRA-LTASG | – | – | – | 30.4312 | 9740.44 | 12792.1
IDTRW-YTASG | – | – | – | 6.7229 | 3344.37 | 2344.36
GCPLS-LYTAS | 33.5282 | 4335.13 | 6688.74 | – | – | –
VVLMG-LTASG | – | – | – | 28.5499 | 1925.41 | 323.705
IPLLN-LTASG | 8.579 | 12792.1 | 1870.4 | – | – | –
GSHSN-LMTAS | 27.7336 | 12792.1 | 56.119 | – | – | –
GGPSM-LTASG | 33.0235 | 12792.1 | 12792.1 | – | – | –
GAPMN-VVTAS | – | – | – | 12.9651 | 5889.62 | 12792.1
SGARN-LLWTA | – | – | – | 24.6947 | 1660.66 | 4613.14
GSVNY-LVTAS | 8.427 | 0 | 0 | – | – | –

Substance | relative probability (RP) (MMP-2 [1]; [3]) | Kobs (MMP-2 [2]; [4]) [M⁻¹ s⁻¹] | Kobs (MMP-9; [5]) [M⁻¹ s⁻¹] | relative probability (RP) (MMP-2 [1]; [6]) | Kobs (MMP-2 [2]; [7]) [M⁻¹ s⁻¹] | Kobs (MMP-9; [8]) [M⁻¹ s⁻¹]
PVFQS-LTASG | 13.5551 | 4922.1 | 142.481 | – | – | –
SLPRP-LTASG | 34.3303 | 6396.07 | 10866.7 | – | – | –
SGGSG-LRVLK | – | – | – | 1.9698 | 654.784 | 355.093
LQSMN-LTASG | 2.165 | 0 | 1239.69 | – | – | –
GHYHH-LMTAS | – | – | – | 0 | 0 | 0
GNPLP-QMTAS | 24.381 | 2157.02 | 1870.4 | – | – | –
TVTQN-LTASG | – | – | – | 7.238 | 1327.88 | 0
SEWQG-LTASG | – | – | – | 12.939 | 1711.63 | 690.17
TTYMS-LTASG | – | – | – | 0.07249 | 0 | 0
SGLWY-LSATA | 0.6796 | 1196.62 | 484.315 | – | – | –
LVGNS-LTASG | 0.2884 | 1981.53 | 0 | – | – | –
SGPSM-LTATA | 33.0235 | 9740.44 | 7386.83 | – | – | –
TVPRA-WTASG | 34.1791 | 8941.32 | 8941.32 | – | – | –
GRASH-LMTAS | 19.8208 | 4470.66 | 726.013 | – | – | –
GMVQH-LITAS | – | – | – | 22.9738 | 10866.7 | 585.336
HVWMN-LTASG | – | – | – | 0 | 418.952 | 619.843
RFALN-LTASG | 17.2813 | 7015.91 | 9740.44 | – | – | –
SGWSG-MMATA | 18.3143 | 1112.44 | 171.876 | – | – | –
SRAYS-LTASG | – | – | – | 18.7071 | 7815.03 | 8941.32
HQWAA-LTASG | – | – | – | 24.4484 | 12792.1 | 836.403
SGASH-MTLTA | 12.3873 | 0 | 0 | – | – | –
MSLGY-LTASG | – | – | – | 24.8925 | 12792.1 | 0
GAPRS-LQTAS | – | – | – | 33.3704 | 12792.1 | 12792.1
ELSLA-LTASG | – | – | – | 6.019 | 1925.41 | 1112.44
WQYSN-LTASG | 25.2832 | 3964.21 | 323.705 | – | – | –
TVLNS-LTASG | 18.3633 | 3438.54 | 0 | – | – | –
